# “Also recorded” adds a separate entry of the source.
# Experiments:
# [1] = test system: SKOv3, OVCAR8, HCC5032, MDA-MB-231 cells; assay: DNA damage: γ-H2AX immunofluorescence and comet assay; format: cell-based, human
# Method: (A) The Heatmap representation unsupervised hierarchical clustering of differentially expressed genes associated with DNA repair. […] (B) Analysis of DNA Repair and apoptosis genes. BRCA2, EXO1, FANCD2, LIG4, XRCC4, BAX, BCL2, CASP7, and TRADD were analyzed using RT-PCR in OVCAR8 ovarian and MDA-MB-231 breast cancer cells. […] (C) Quantification of DNA damage (γ-H2AX). Endogenous γ-H2AX was stained with anti-γ-H2AX antibody in the cells treated with single agent or combined for 8 hrs as indicated. […] Red indicates γ-H2AX and Blue-DAPI indicates nuclear stain. Representative images are presented (right). Bar 20 […]. Red γ-H2AX dots were quantified with OLYMPUS CellSens Dimension software. […] Bar 20 μm. (D) Detection of apoptosis using Annexin V/Propidium iodide (PI) staining.
# (A) The heatmap of unsupervised hierarchical clustering of differently expressed genes associated with apoptosis. […] (B) Analysis of DNA repair and apoptosis gene. […] Representative experiments were from two independent experiment and 3 technical repeats per experiments. (C) Quantification of DNA damage using comet assay. […] Slides were then stained with Vista Green DNA dye and viewed using Olympus fluorescence microscope with FITC filter. Olive Tail Moment was measured using CaspLab1.2.3β2 software. […] Representative experiments were from three independent experiments with a minimum of 50 cells.
# Cells were trypsinized and resuspended at 2×10^5/mL in cold PBS without Ca^2+ and Mg^2+. Cells were mixed with pre-warmed comet agarose at 1:10 (v/v) ratio. 10 uL of cell agarose mixture was plated onto comet slides pre-coated with 75 uL of agarose and chilled at 4° C. for 15 min to set. Cells were lysed in 25 mL of Lysis buffer at 4° C. for 2 hrs and washed with alkaline solution (pH 10). Comet slides were electrophoresed in cold alkaline solution at 20V for 15 min. […] Experiments were run in triplicate and Olive Tail Moment was measured using CaspLab1.2.β2 software (CaspLab.com). […] 50-200 Cells were measured for each treatment and experiments were repeated twice independently to ensure reproducibility. […]
# [2] = test system: MEF2D binding to FANCD2, EXO1, XRCC4; assay: ChIP-qPCR of MEF2D binding to promoter/enhancer regions; format: cell-based, human; details: for MEF2D binding to EXO1 and XRCC4 promoter/enhancer regions: all cell lines tested; for MEF2D-association with the FANCD2 promoter/enhancer region: all four cell lines assessed
# Method: (A) Alterations affecting MEF2 family genes in ovarian and breast cancer by TCGA analysis. […] Data and plots were obtained using cBioPortal (21, 58, 59). (B) MEF2D consensus DNA motifs. The MEF2 motif is enriched in MEF2D-binding sites in SKOv3 cells. (C) GO analysis of MEF2D-bound genes. […] (E) Chip and RT-qPCR analysis of FANCD2, EXO1, and XRCC4 genes. […] Chip pull-down samples were analyzed by RT-qPCR.
# (A) MEF2D-binding sites in human ovarian cancer cells. (B) Chip analysis of FANCD2, EXO1, and XRCC4 genes. […] Chip pull-down samples were analyzed by RT-qPCR using as indicated.
# Chip assays were performed using the Magna Chip A Kit (Millipore). […] Nuclei were isolated and sonicated to obtain 200-1000 bp DNA fragments using the QSONICA sonicator for 30 cycles with 10 seconds pulses at 100% amplitude with 2 min of incubation on ice between pulses. For individual ChIP assay, 100 μg of soluble chromatin per sample was immunoprecipitated with 8 μg of mouse IgG control antibody (Santa Cruz, sc-2025), 8 μg of rabbit control antibody (Millipore, PP64B), 8 μg of MEF2D antibody (Santa Cruz, sc-27115 3×), 8 μg of RNA polymerase II antibody (Abcam, ab817), 6 μg of Histone H3 (acetyl K27) antibody (Abcam, ab45173) or 6 μg of Histone H3 (tri methyl K4) (Abcam, ab8580). For ChIP-Sequence, 500 μg of chromatin per sample was immunoprecipitated with 40 μg of MEF2D antibody. Input determined from 1% of the cell lysate was used as a negative control. Purified and enriched DNA was quantified using real time quantitative PCR (RT-qPCR) with the following primers. FANCD2D Forward, 5′-ACCTGTTATGAGCGTGAAGTC-3′ (SEQ ID NO:1) and Reverse, 5′-GATGCAGGACTGTGCATTAGA-3′ (SEQ ID NO:2); EXD2 Forward, 5′-GGTCTGGCCTAAGGTTTCTTC-3′ (SEQ ID NO:3) and Reverse, 5′-CAG TTC ACG CTG GGT TCT T-3′ (SEQ ID NO:4); and XRCC Forward, 5′-GCAGTCTTCCTAGTCTCAACT-3′ (SEQ ID NO:5) and Reverse, 5′-TTGCCCTTCTAGGAGCTTAATG-3′ (SEQ ID NO:6). RT-qPCR was performed using iTaq Universal SYBR Green Supermix (Bio-Rad, 172-5124) in a CFX Connect RT-qPCR (Bio-Rad). Thermal cycling condition was as follows: 94° C. for 10 min, followed by 40 cycles of 94° C. for 20 sec, and 60° C. for 60 sec. Analysis of qPCR data was calculated using fold enrichment method (The ChIP signals are divided by the IgG antibody signals, 2^-DDCt).
# [3] = test system: MEF2D binding sites in SKOv3 ovarian cancer cells; format: cell-based, human
# Method: Genome-wide binding of MEF2D in SKOv3 ovarian cancer cells was then examined using chromatin immunoprecipitation sequencing (Chip-seq). […] To identify a MEF2D consensus recognition sequence in ovarian cancer cells, de novo-motif discovery analysis was performed.
# Chip assays were performed using the Magna Chip A Kit (Millipore). […] Nuclei were isolated and sonicated to obtain 200-1000 bp DNA fragments using the QSONICA sonicator for 30 cycles with 10 seconds pulses at 100% amplitude with 2 min of incubation on ice between pulses. […] For ChIP-Sequence, 500 μg of chromatin per sample was immunoprecipitated with 40 μg of MEF2D antibody. Input determined from 1% of the cell lysate was used as a negative control. Purified and enriched DNA was quantified using real time quantitative PCR (RT-qPCR) with the following primers. […] Analysis of qPCR data was calculated using fold enrichment method (The ChIP signals are divided by the IgG antibody signals, 2^-DDCt).
# Sequencing was performed by the Sequencing and Microarray Facility (SMF) at MD Anderson Cancer Center. […] Libraries were amplified by 8 cycles of PCR and then size distribution was assessed using the 4200 TapeStation High Sensitivity D1000 ScreenTape (Agilent Technologies) and quantified using the Qubit dsDNA HS Assay Kit (ThermoFisher). […] The raw reads were first preprocessed to remove sequencing adapters and low quality reads. […]
# [4] = test system: ovarian cancer cell lines; assay: cells; details: read-out: IC50, growth of ovarian cancer cell lines
# MDA-MB-231 xenografts = assay: MDA-MB-231 mammary fat pad xenograft; format: in vivo, mice; details: 5 weeks treatment
# Method: (§1) (^nsp>0.05, *p<0.05; ** p<0.01). […] (^nsp>0.05, *p<0.05; ** p<0.01). […] Scale bar, 50 μM.
# Forty female nu/nu mice were injected with 0.8×10^6 MDA-MB-231 cells into their fourth mammary fat pads. […] Tumors were measured every week as noted above (SKOv3 xenograft models).
# organoid = assay: Organoid growth; format: cell-based
# Method: To evaluate additive or synergistic interactions, a combination Index (CI value) was calculated with CalcuSyn software.
# [5] = test system: MDA-MB-231 orthotopic xenografts; assay: MDA-MB-231 orthotopic xenografts (paclitaxel sensitivity study); format: in vivo, mice
# [6] = test system: OVCAR8 and MDA-MB-231 xenograft tumors; assay: IHC of xenograft tumors at study termination; format: in vivo, mice
# Method: as §1
# Tumors growing as xenografts were collected for histology with H&E and IHC staining. Routine H&E staining detected high-grade ovarian cancer in ovarian cancer xenograft models and breast cancer morphology in the breast cancer xenograft model, respectively. IHC of OVCAR8 and MDA-MB-231 xenograft tumors at study termination recapitulated in vitro studies.
# Formalin fixed and paraffin embedded mouse tissue sections were deparaffinized and rehydrated in gradient ethanol solutions. Antigens were retrieved in Rodent Decloaker (BioCare Medical, RD913M) and microwaved twice in an EZ Retriever System V3 (BioGenex) at 95° C. for 5 min. Tissues were blocked in PeroxAbolish (BioCare Medical, PXA969M) for 30 min, Rodent Block M (BioCare Medical, RBM961L) for 30 min, and 5% BSA in PBS for 30 min Tissues were incubated with primary antibody as indicated overnight at 4° C. VisUCyte HRP Polymer IgG (R&D Systems, VC001-025 for mouse, VC003-025 for rabbit) was applied for 30 min at room temperature followed by DAB chromogenesis (BioCare Medical, BDB2004L). Tissues were counter-stained with CAT hematoxylin (Thermo Fisher, CATHE-M) for 20 sec. The slides were then dehydrated through gradient ethanol solutions and two passes of xylene and sealed with Permount (Thermo Fisher, SP15-100).
# [7] = Toxicology / pre-clinical studies, hematologic toxicity; format: in vivo
# [8] = test system: SKOv3 and OVCAR8 SIK2 knock-out cells; assay: Olaparib dose-response in SIK2 knock-out cells; details: SIK2 knock-out by CRISPR/Cas9
# Method: (§2) Representative experiments were from two independent experiments with four technical repeats per experiment. (B) Dose-response curves of olaparib in paired cancer cell lines with or without knockout of SIK2 (top) and with or without stable transfection of SIK2 (bottom). The median inhibitory concertation (IC50) of olaparib was calculated using GraphPad Prism 8. Representative experiments are from two independent experiments with four technical repeats per experiment. Western analysis confirmed either SIK2 knock out (top) or overexpression (bottom).
# (§3) To exclude potential off-target effects of SIK2 inhibitors, SIK2 was knocked down by CRISPR/Cas9 and stable ectopic expression of SIK2 was established in SKOv3 and OVCAR8 ovarian cancer cells.
# OVCAR8 and SKOv3 SIK2 knock out cell lines were established using CRISPR/Cas9 technology known in the art. Briefly, a plasmid with GFP containing Cas9 and the sgRNA expression were transfected to cancer cells. […] Transfected cells were isolated by FACS for single-cell culture 2-3 days after transfection, and then the cells were expanded and harvested for detection of the protein expression using western analysis.
# SKOv3 xenografts = assay: SKOv3 subcutaneous xenograft; format: in vivo, mice; details: oral, five times per week, 4 weeks
# Method: as §1
# DT40 PARP-1 −/− cells = assay: Dose-response in DT40 PARP-1 -/- cells; details: cells lacking PARP1/2
# Method: Representative data are from three independent experiments with 4 technical repeats per experiment. […] The IC50 indicated on the curves was calculated using GraphPad Prism 8.
# To further test this possibility, DT40 PARP-1 −/−cells that lack PARP enzyme activity (avian cells lack PARP2) were treated with SIK2 inhibitors or olaparib.
# [9] = test system: SKOv3 and OVCAR8 cells with stable ectopic expression of SIK2; assay: Olaparib dose-response in cells with stable ectopic SIK2 expression
# Method: as §2, §3
Compound,levels of γ-H2AX and tailed DNA [1],MEF2D binding to EXO1 and XRCC4 promoter/enhancer regions [2],MEF2D-association with the FANCD2 promoter/enhancer region [2],MEF2D binding sites [3],IC50 [4],tumor burden / tumor volume (MDA-MB-231 xenografts),organoid growth (organoid),survival of mice [5],xenograft growth [5],nuclear p-HDAC5 staining [6],nuclear γ-H2AX staining [6],hematologic toxicity [7],IC50 in SIK2 deficient cells compared to control cells [8],tumor growth (SKOv3 xenografts),sensitivity of DT40 PARP-1 −/− cells (DT40 PARP-1 −/− cells),IC50 in cells with stable ectopic expression of SIK2 [9]
"COc1c(F)cc(F)cc1-c1c[nH]c2ncc(-c3cnn(C4CCNCC4)c3)cc12 [Compound A, 3-(3,5-difluoro-2-methoxyphenyl)-5-(1-(piperidin-4-yl)-1H-pyrazol-4-yl)-1H-pyrrolo[2,3-b]pyridine]",modestly increased,significantly decreased,decreased,36 binding sites,0.8 to 2.6 µM,–,–,–,–,–,–,–,–,–,–,–
"COc1c(F)cc(F)cc1-c1c[nH]c2ncc(-c3cnn(C4CCN(S(C)(=O)=O)CC4)c3)cc12 [Compound B, 3-(3,5-difluoro-2-methoxyphenyl)-5-(1-(1-(methylsulfonyl)piperidin-4-yl)-1H-pyrazol-4-yl)-1H-pyrrolo[2,3-b]pyridine]",modestly increased,significantly decreased,decreased,–,0.8 to 2.6 µM,tumor burden remained unchanged,inhibits organoid growth inducing cell death,prolonged the survival,inhibited xenograft growth,decreased,increased nuclear γ-H2AX staining,minimal hematologic toxicity; also recorded: little or no hematopoietic toxicity,–,–,–,–
"O=C(c1cc(Cc2n[nH]c(=O)c3ccccc23)ccc1F)N1CCN(C(=O)C2CC2)CC1 [Olaparib, reference compound]",modestly increased,–,–,–,–,tumor burden remained unchanged,–,–,–,not,–,–,lower IC50,significantly inhibited tumor growth,resisted,increased IC50
